Data set [1] is described as follows: Physical properties of the surfactants obtained from literature. It is filed as physicochemical. The settings on record: carbons in hydrophobic tail / total carbons. As to the method: Table 3 lists the surfactants utilized in this study and their relevant physical properties obtained from literature. The value of ‘fh’ is also listed, this is defined as the fraction of hydrophobic chain length of the surfactant and is calculated by taking the ratio of number of carbons in the hydrophobic tail of the surfactant to the total number of carbons present in the surfactant.

A short description of data set [2]: Surfactant release experiments from hydrogels in DI water (surface tension). The format is physicochemical. To be noted: for Slope (surfactant release vs rescaled time): p-HEMA gels, slope = √(2DSC*×100); for DSC*: surfactant diffusivity times critical aggregation concentration in p-HEMA gel, from fitting surfactant release data. How it is done: The rates of surfactant release were measured in 3.5 ml of DI water with water replacement after each measurement to maintain perfect sink conditions. The surfactant concentration in the release medium was determined by measuring surface tension (σ), which was then related to the concentration through a σ(C) calibration curve. The surface tension was measured by using a Wilhelmy plate (sand blasted platinum plate) attached to a Scaime France Microbalance which was further connected to a Stathan Universal transducer (SC001).
The rate of surfactant release from surfactant-laden contact lenses needs to be measured because an excessive release could lead to toxicity. Additionally, the rate of surfactant release impacts drug release. As described in the previous section, the surfactant concentration in the release medium was determined by measuring the surface tension of the solution, which is related to the bulk concentration (Data not shown).
where DS is the surfactant diffusivity, C* is the critical aggregation concentration (CAC), i.e., the concentration beyond which the surfactant aggregates inside the gel, t is time, Cp is the concentration of the surfactant present as aggregates inside the hydrogel, and h is the half-thickness of the hydrogel. The above equation is valid for diffusion of any solute that is loaded in the gel above saturation limit and so a fraction of the solute precipitates into aggregates. This equation is the equivalent of the Higuchi equation that is commonly utilized to model drug release from gels [Higuchi T. Rate of release of medicaments from ointment bases containing drugs in suspension. Journal of Pharmaceutical Sciences 1961; 50(10):874-875].
To validate the model and to understand the mechanism of surfactant transport, surfactant release studies were conducted from gels of different surfactant loadings (approximately 2%, 4% and 8% w/w in drug gel) and different gel thicknesses (˜100 and 200 μm in dry state). FIG. 8a-c show the surfactant release from 100 μm thick and 200 μm thick gels with three different surfactant concentration explored for 200 μm thick gels. The data is re-plotted in FIG. 9a-c with time axis rescaled to
The fact that association of Brij 700 with the gel matrix is strongly dependant on the gel thickness may be due to large number of ethylene oxide (EO) units in the surfactant.
The slope indicated in FIG. 9(a-c) represents the value of √{square root over (2DSC*×100)}.
As mentioned above, the critical aggregation concentration for Brij 700 in p-HEMA gels is more than 1%, and so the release data from gels loaded with 1% (w/w) can be fitted to the following equation to obtain the surfactant diffusivity [Ritger P L, Peppas N A. A simple equation for description of solute release 1. Fickian and non-Fickian release from mom-swellable devices in the form of slabs, spheres, cylinders and discs. Journal of Controlled Release 1987; 5:23-36].
Here DS is the diffusivity of the surfactant and h is the half-thickness of the gel. The diffusivity of Brij 700 from these hydrogels was determined to be 7.85×10^−17 m^2/s and subsequently the value of C* was evaluated from the already determined parameter ‘DsC*’ (Table 4) to be 2.4±1.1 mM, which is equivalent to 1.12±0.51% surfactant in a dry gel. This value is in reasonable agreement with the hypothesis C* for Brij 700 is approximately 2%, which was based on the overlapping percentage release data for 1% and 2% Brij 700 loaded gels.

The next data set concerns cornea. To be noted: exposure to 0.05% solution for about 5 hours; cited from earlier work.
For data set [3] the following is noted: calculated earlier (Kapoor and Chauhan 2008), reported for comparison; cited from earlier work.

Where two headings read alike, the source gives them in different places.

Take POE (10) oleyl ether [Brij 97]: the “fh (fraction of hydrophobic chain length of the surfactant)” value in data set [1] turned out to be 0.47. Moreover, in data set [2], the “Slope (surfactant release vs rescaled time)” value is reported as 0.4802 ± 0.010 and the “DSC*” value is on record as 11.52 (μm)^2M/s × 10^6.
As for POE (20) stearyl ether [Brij 78], the “fh (fraction of hydrophobic chain length of the surfactant)” value in data set [1] stood at 0.31. Further, in data set [2] (100 micron thick gel with 8% loading), the “average release of surfactant” value is reported as “about 30 μg/day”. Also, the “amount of surfactant released” value in data set [2] (100 micron thick gel with 8% loading, 10 days) is recorded as “around 300 μg”. Besides, the “surfactant released from gel” value in data set [2] (100 micron thick gel with 8% loading, period of 10 days) is reported as “about 10%”. The “surfactant released into the post lens tear film” value in data set [2] (at the most half of the average release, lens on an eye) is at most 15 µg/day. Besides, in data set [2], the “Slope (surfactant release vs rescaled time)” value came to 0.1846 ± 0.050 and the “DSC*” value was 1.70 (μm)^2M/s × 10^6. In addition, the corneal hydration entry in the data set on cornea is on record as “does not lead to any significant increase in corneal hydration”.
Turning to POE (20) oleyl ether [Brij 98], in data set [1], the “fh (fraction of hydrophobic chain length of the surfactant)” value is 0.31. In data set [3], the “DSC*” value was 60.80 (μm)^2M/s × 10^6 and the “Slope (surfactant release vs rescaled time)” value is given as 1.1000 ± 0.013.
Consider POE (100) stearyl ether [Brij 700], for which, in data set [1], the “fh (fraction of hydrophobic chain length of the surfactant)” value was determined as 0.08. Also, the “C* as surfactant in a dry gel” value in data set [2] (equivalent of the mM value) was 1.12±0.51%. Further, in data set [2] (in p-HEMA gel, evaluated from DsC* and DS), the “C* (critical aggregation concentration)” value came out at 2.4 ± 1.1 mM. The “diffusivity of the surfactant from hydrogels (DS)” value in data set [2] (p-HEMA gels loaded with 1% (w/w) surfactant) is recorded as 7.85×10^−17 m^2/s. Also, in data set [2], the “Slope (surfactant release vs rescaled time)” value came to 0.0613 ± 0.013 and the “DSC*” value is 0.19 (μm)^2M/s × 10^6.

(Values after patent US20110217355A1, “CONTACT LENS BASED BIOACTIVE AGENT DELIVERY SYSTEM” (priority 2007, published 2011).)
